In patent US20210213137A1, “COMPOSITIONS TO TREAT ULTRAVIOLET (UV)-INDUCED SKIN INJURY” (Mayo Foundation for Medical Education and Research, priority 2016, published 2021):

What was measured:
mouse ears = assay: UVB-induced ear edema (ear thickness) in mice; type: in vivo
Text: FIG. 1A. Timeline of the acute and chronic effects of UV-induced skin injury. FIG. 1B. Quantitative PCR was used to measure induction of VEGF transcript in mouse skin upon exposure to various doses of UVB (n=3 mice/group). FIG. 1C. Representative photographs of mouse ears two days after UVB exposure. UVB induces angiogenesis in the ear of mice. FIG. 1D. Systemic administration of VEGF antibody 2C3 reduces edema as shown by 50% decrease in ear thickness (p=0.0101, n=4).
(§1) FIG. 2A. […] FIG. 2B. […] 1×1 cm are on the right flank of the mice were exposed to UVB 3 times/week for 3 weeks (n=5). Either vehicle or GNP-VEGF antibody was applied to the area 2 hours after exposure. FIG. 2C. […] All treatments were applied 2 hours post-UVB exposure. Data representative of 2 experiments, n=5. Ear thickness was measured 2 days after UVB exposure. Avastin® and 2C3 are VEGF antibodies. FIG. 2D. Topical administration of GNP-VEGF antibody or small molecular inhibitor (SMI) of VEGF signaling, sorafenib, reduces edema. All treatments were applied 2 hours post UVB exposure. Data representative of 2 experiments, n=5. Ear thickness was measured 2 days after UVB exposure.

mice skin = assay: UVB-induced skin injury in mice (chronic and acute UVB exposure); type: in vivo; settings: topical administration; summary statement
Method: as §1
Vascular endothelial growth factor (VEGF) was induced by UVB light and works concomitantly with ROS to induce the pathway, and was identified as an upstream regulator of the inflammation pathway.

primary melanoma tumor = assay: Mouse model of melanoma with chronic UVB exposure; type: in vivo, mice; settings: summary statement
Method: FIG. 3A. […] For Tumor+UV group * p<0.05, ** p<0.01 compared to tumor only, § p<0.05 compared to Tumor+UV+Tx group. No significant difference between tumor only and tumor+UV+Tx group at all time points. Data based on 3 experiments (n=5). FIG. 3B. […] FIG. 3C. Quantification of vessel density via CD31 staining, a marker of vessels.
FIG. 4A. Schematic diagram of experimental setup corresponding to FIG. 3A. All mice were injected with tumor on their right flank on Day 0. Luciferase imaging was done on day 5. Based on luciferase imaging data, mice were assigned to different groups (no UV—tumor only, tumor+UV, and tumor+UV+Tx). Starting on day 6, 1×1 cm area on the tumor was exposed to UVB. Vehicle or treatment was applied 2 hours post UVB exposure. A subset of the mice (n=4) was sacrificed on day 6, 10, 14 and 19 for analysis. FIG. 4B. Survival curve of mice in a separate analogous tumor study to the one represented in FIG. 3A.

Compound: CNC(=O)c1cc(Oc2ccc(NC(=O)Nc3ccc(Cl)c(C(F)(F)F)c3)cc2)ccn1 [sorafenib]
- acute effects of UV-induced skin damage (mouse ears; topical administration, mice): inhibited the acute effects of UV-induced skin damage
- edema (ear thickness) (mouse ears; topical, 2 hours post UVB exposure, ear thickness 2 days after UVB, n=5, FIG. 2D): reduces edema
- skin injury following UVB exposure (mice skin): prevented and/or reduced skin injury

Compound: bevacizumab [Avastin®]
- skin injury following UVB exposure (mice skin): prevented and/or reduced skin injury
- melanoma tumor growth (primary melanoma tumor): prevented and/or reduced melanoma tumor growth
